In patent US11168086B2, “Methods of synthesizing pyrazine compounds” (Hoffmann-La Roche Inc., priority 2015, dated 2021):
pEC50: −log10 of the molar value.

System: HBV
Experiment: HBV inhibition assay: anti-HBV activity in vitro in HepG2.2.15 cells (extracellular HBV DNA by qPCR)
Format: cell-based
Details: five days after compound treatment, extracellular HBV DNA in culture supernatant by qPCR, concentration at which HBV replication is inhibited by 50%
Text: Example 441: HBV Inhibition Assays
Cell Line and Culture Conditions:
HepG2.2.15 is a stably-transfected cell line containing the HBV genome. It is derived from the hepatoblastoma cell line Hep G2 (American Type Culture Collection, ATCC® HB-8065™) by the published procedures described in reference: MA Selles et al. Proc. Natl. Acad. Sci. USA 1987, 84, 1005-1009. The cell line was maintained in Dulbecco's modified Eagle's medium (DMEM)-F12 medium supplemented with 10% fetal bovine serum, 100 U/mL penicillin, 100 μg/mL streptomycin, and 0.5 mg/mL of G418.
Anti-HBV Activity In Vitro:
HepG2.2.15 cells were seeded into 96-well plates (3×10^4 cells in 100 μL media per well) and incubated overnight at 37° C. The test compounds were serially half-log diluted in DMSO, then diluted 100 times in culture media. 100 μL diluted compounds were added into the plates to reach 0.5% final concentration of DMSO in every well. Five days after compound treatment, culture supernatant was collected for further analysis.
For quantitative PCR detection of extracellular HBV DNA, culture supernatant was processed by Proteinase K digestion. After heat inactivation of the enzyme, the samples were subjected to HBV DNA quantification by qPCR. The effective compound concentration at which
HBV replication is inhibited by 50% (EC50) was determined.

SMILES	pEC50 (Hepatitis B virus, 120 h)	pEC50
C[C@H]1Cn2ncc(N3CC(c4cocn4)CC3=O)c2CN1C(=O)Nc1cc(F)c(F)c(F)c1 (stereo partly drawn) [Example 352, (6S)-6-methyl-3-(4-oxazol-4-yl-2-oxo-pyrrolidin-1-yl)-N-(3,4,5-trifluorophenyl)-6,7-dihydro-4H-pyrazolo[1,5-a]pyrazine-5-carboxamide]	7.85	–
C[C@H]1Cn2ncc(N3CC(C)(C)CC3=O)c2CN1C(=O)Nc1ccc(F)c(Cl)c1 [Example 257, (6S)—N-(3-chloro-4-fluoro-phenyl)-3-(4,4-dimethyl-2-oxo-pyrrolidin-1-yl)-6-methyl-6,7-dihydro-4H-pyrazolo[1,5-a]pyrazine-5-carboxamide]	7.82	–
C[C@H]1Cn2ncc(N3C[C@@H](c4cnco4)OCC3=O)c2CN1C(=O)Nc1cc(F)c(F)c(F)c1 [Example 407, (6S)-6-methyl-3-[(2S)-2-oxazol-5-yl-5-oxo-morpholin-4-yl]-N-(3,4,5-trifluorophenyl)-6,7-dihydro-4H-pyrazolo[1,5-a]pyrazine-5-carboxamide]	7.62	–
N#Cc1cc(NC(=O)N2CCn3ncc(-c4ccc(F)cn4)c3C2)ccc1F [Example 76, N-(3-cyano-4-fluoro-phenyl)-3-(5-fluoro-2-pyridyl)-6,7-dihydro-4H-pyrazolo[1,5-a]pyrazine-5-carboxamide]	7.02	–
C[C@H]1Cn2ncc(N3C[C@@H](C#N)CC3=O)c2CN1C(=O)Nc1cc(F)c(F)c(F)c1 [Example 240-2, (6S)-3-[(4S)-4-cyano-2-oxo-pyrrolidin-1-yl]-6-methyl-N-(3,4,5-trifluorophenyl)-6,7-dihydro-4H-pyrazolo[1,5-a]pyrazine-5-carboxamide]	8.05	–
C[C@H]1Cn2ncc(N3CC(C#N)CC3=O)c2CN1C(=O)Nc1ccc(F)c(Cl)c1 (stereo partly drawn) [Example 229, (6S)—N-(3-chloro-4-fluoro-phenyl)-3-(4-cyano-2-oxo-pyrrolidin-1-yl)-6-methyl-6,7-dihydro-4H-pyrazolo[1,5-a]pyrazine-5-carboxamide]	7.33	–
C[C@H]1Cn2ncc(N3CC[C@H](O)C3=O)c2CN1C(=O)Nc1cc(F)c(F)c(F)c1 [Example 262, (6S)-3-[(3S)-3-hydroxy-2-oxo-pyrrolidin-1-yl]-6-methyl-N-(3,4,5-trifluorophenyl)-6,7-dihydro-4H-pyrazolo[1,5-a]pyrazine-5-carboxamide]	7.19	–
O=C(Nc1cccc(Cl)c1)N1CCn2ncc(-c3ccccc3F)c2C1 [Example 30, N-(3-chlorophenyl)-3-(2-fluorophenyl)-6,7-dihydro-4H-pyrazolo[1,5-a]pyrazine-5-carboxamide]	7.14	–
O=C(Nc1ccc(F)c(Cl)c1)N1CCn2ncc(-c3cc(C(F)(F)F)ccn3)c2C1 [Example 67, N-(3-chloro-4-fluoro-phenyl)-3-[4-(trifluoromethyl)-2-pyridyl]-6,7-dihydro-4H-pyrazolo[1,5-a]pyrazine-5-carboxamide]	7.54	–
C[C@H]1Cn2ncc(N3CC(CO)CC3=O)c2CN1C(=O)Nc1ccc(F)c(Cl)c1 (stereo partly drawn) [Example 298, (6S)—N-(3-chloro-4-fluoro-phenyl)-3-[4-(hydroxymethyl)-2-oxo-pyrrolidin-1-yl]-6-methyl-6,7-dihydro-4H-pyrazolo[1,5-a]pyrazine-5-carboxamide]	6.98	–
Cc1cc(NC(=O)N2CCn3cnc(-c4ccc(F)cc4F)c3C2)cc(F)c1F [Example 167, N-(3,4-difluoro-5-methyl-phenyl)-1-(2,4-difluorophenyl)-6,8-dihydro-5H-imidazo[1,5-a]pyrazine-7-carboxamide]	7.82	–
C[C@H]1Cn2ncc(N3CC4(CCC4)CC3=O)c2CN1C(=O)Nc1cc(F)c(F)c(F)c1 [Example 421, (6S)-6-methyl-3-(7-oxo-6-azaspiro[3.4]octan-6-yl)-N-(3,4,5-trifluorophenyl)-6,7-dihydro-4H-pyrazolo[1,5-a]pyrazine-5-carboxamide]	7.85	–
C[C@H]1Cn2ncc(N3CC4(CC4)C(O)C3=O)c2CN1C(=O)Nc1cc(F)c(F)c(F)c1 (stereo partly drawn) [Example 424, (6S)-3-(7-hydroxy-6-oxo-5-azaspiro[2.4]heptan-5-yl)-6-methyl-N-(3,4,5-trifluorophenyl)-6,7-dihydro-4H-pyrazolo[1,5-a]pyrazine-5-carboxamide]	7.36	–
O=C(Nc1ccc(F)c(Cl)c1)N1CCn2ncc(C3CCCCC3)c2C1 [Example 73, N-(3-chloro-4-fluoro-phenyl)-3-cyclohexyl-6,7-dihydro-4H-pyrazolo[1,5-a]pyrazine-5-carboxamide]	7.35	–
O=C(Nc1ccc(F)c(Cl)c1)N1CCn2ncc(C3CCCC3)c2C1 [Example 78, N-(3-chloro-4-fluoro-phenyl)-3-cyclopentyl-6,7-dihydro-4H-pyrazolo[1,5-a]pyrazine-5-carboxamide]	7.54	–
C[C@H]1Cn2ncc(N3C[C@@H](O)CC3=O)c2CN1C(=O)Nc1cc(F)c(F)c(F)c1 [Example 377, (6S)-3-[(4S)-4-hydroxy-2-oxo-pyrrolidin-1-yl]-6-methyl-N-(3,4,5-trifluorophenyl)-6,7-dihydro-4H-pyrazolo[1,5-a]pyrazine-5-carboxamide]	7.09	–
C[C@H]1Cn2ncc(N3CC(Cn4cccn4)CC3=O)c2CN1C(=O)Nc1cc(F)c(F)c(F)c1 (stereo partly drawn) [Example 268, (6S)-6-methyl-3-[2-oxo-4-(pyrazol-1-ylmethyl)pyrrolidin-1-yl]-N-(3,4,5-trifluorophenyl)-6,7-dihydro-4H-pyrazolo[1,5-a]pyrazine-5-carboxamide]	7.02	–
C#Cc1cc(NC(=O)N2CCn3ncc(-c4ccc(F)cc4)c3C2)ccc1F [Example 122, N-(3-ethynyl-4-fluoro-phenyl)-3-(4-fluorophenyl)-6,7-dihydro-4H-pyrazolo[1,5-a]pyrazine-5-carboxamide]	7.03	–
CC1Cn2ncc(-c3ccc(F)cc3F)c2CN1C(=O)Nc1ccc(F)c(C#N)c1 (centres unmarked) [Example 85, N-(3-cyano-4-fluoro-phenyl)-3-(2,4-difluorophenyl)-6-methyl-6,7-dihydro-4H-pyrazolo[1,5-a]pyrazine-5-carboxamide]	7.96	–
C[C@H]1Cn2ncc(N3C[C@@H](Oc4ncccn4)CC3=O)c2CN1C(=O)Nc1cc(F)c(F)c(F)c1 [Example 381, (6S)-6-methyl-3-[(4S)-2-oxo-4-pyrimidin-2-yloxy-pyrrolidin-1-yl]-N-(3,4,5-trifluorophenyl)-6,7-dihydro-4H-pyrazolo[1,5-a]pyrazine-5-carboxamide]	8.30	–
CC1CCN(c2cnn3c2CN(C(=O)Nc2ccc(F)c(Cl)c2)[C@@H](C)C3)C1=O (stereo partly drawn) [Example 297, (6S)—N-(3-chloro-4-fluoro-phenyl)-6-methyl-3-(3-methyl-2-oxo-pyrrolidin-1-yl)-6,7-dihydro-4H-pyrazolo[1,5-a]pyrazine-5-carboxamide]	7.17	–
C[C@H]1Cn2ncc(N3CCNC3=O)c2CN1C(=O)Nc1cc(F)c(F)c(C(F)F)c1 [Example 373, (6S)—N-[3-(difluoromethyl)-4,5-difluoro-phenyl]-6-methyl-3-(2-oxoimidazolidin-1-yl)-6,7-dihydro-4H-pyrazolo[1,5-a]pyrazine-5-carboxamide]	7.66	–
CC1Cn2ncc(N3CCCC3=O)c2CN1C(=O)Nc1ccc(F)c(Cl)c1 (centres unmarked) [Example 202, N-(3-chloro-4-fluoro-phenyl)-6-methyl-3-(2-oxopyrrolidin-1-yl)-6,7-dihydro-4H-pyrazolo[1,5-a]pyrazine-5-carboxamide]	7.29	–
C[C@H]1Cn2ncc(N3C[C@H](C#N)CC3=O)c2CN1C(=O)Nc1cc(F)c(F)c(F)c1 [Example 240-1, (6S)-3-[(4R)-4-cyano-2-oxo-pyrrolidin-1-yl]-6-methyl-N-(3,4,5-trifluorophenyl)-6,7-dihydro-4H-pyrazolo[1,5-a]pyrazine-5-carboxamide]	7.26	–
C[C@H]1Cn2ncc(N3CC(c4ccccc4)C(O)C3=O)c2CN1C(=O)Nc1cc(F)c(F)c(F)c1 (single isomer, unassigned) [Example 438-4]	–	8.00
Cc1nc(C2CC(=O)N(c3cnn4c3CN(C(=O)Nc3cc(F)c(F)c(F)c3)[C@@H](C)C4)C2)no1 (stereo partly drawn) [Example 285, (6S)-6-methyl-3-[4-(5-methyl-1,2,4-oxadiazol-3-yl)-2-oxo-pyrrolidin-1-yl]-N-(3,4,5-trifluorophenyl)-6,7-dihydro-4H-pyrazolo[1,5-a]pyrazine-5-carboxamide]	8.15	–
Cc1cc(-c2cnn3c2CN(C(=O)Nc2ccc(F)c(Cl)c2)CC3)ncc1F [Example 68, N-(3-chloro-4-fluoro-phenyl)-3-(5-fluoro-4-methyl-2-pyridyl)-6,7-dihydro-4H-pyrazolo[1,5-a]pyrazine-5-carboxamide]	7.12	–
C[C@H]1Cn2ncc(N3CC(c4ncccn4)CC3=O)c2CN1C(=O)Nc1cc(F)c(F)c(F)c1 (stereo partly drawn) [Example 437, (6S)-6-methyl-3-(2-oxo-4-pyrimidin-2-yl-pyrrolidin-1-yl)-N-(3,4,5-trifluorophenyl)-6,7-dihydro-4H-pyrazolo[1,5-a]pyrazine-5-carboxamide]	8.22	–
C[C@H]1Cn2ncc(N3CC4(CCOC4)CC3=O)c2CN1C(=O)Nc1ccc(F)c(Cl)c1 (stereo partly drawn) [Example 303, (6S)—N-(3-chloro-4-fluoro-phenyl)-6-methyl-3-(8-oxo-2-oxa-7-azaspiro[4.4]nonan-7-yl)-6,7-dihydro-4H-pyrazolo[1,5-a]pyrazine-5-carboxamide]	7.09	–
